The text below walks through data of paper PMC11640089, “JRM-28, a Novel HDAC2 Inhibitor, Upregulates Plasticity-Associated Proteins in Hippocampal Neurons and Enhances Morphological Plasticity via Activation of CREB: Implications for Alzheimer’s Disease” (Cells, 2024).

Series [1] deals with NR2A and GluR1. The series is described as follows: NR2A and GluR1 immunofluorescence in E18 mouse hippocampal neurons. The series is classed as cell-based. The following applies: 5 µM. As for the experimental part:
Immunofluorescence analysis was performed as described earlier. Briefly, cells cultured on coverslip contained in six-well plates (Lab-Tek II) were fixed with 4% paraformaldehyde for 20 min followed by two rinses in TBST. Samples were incubated in a 1:1 solution of TBST and blocking buffer containing rabbit anti-NR2A (1:250), anti-GluR1 (1:250), ant-HDAC2 (1:250), anti-CREB (1:250), and anti-MAP2 (1:250) for 2 h at 37 °C. After three washes in PBST (15 min each), slides were further incubated with FIT-C and TRIT-C-conjugated secondary antibodies. For negative controls, a set of culture slides was incubated under similar conditions with secondary antibodies and without the primary antibodies (Table 3). The samples were mounted and observed under an Accuscope fluorescent microscope. The images were captured and merged in CaptaVision^TM imaging software.

Series [2] concerns the target HDAC2 (Homo sapiens, UniProt Q92769). The series is described as follows: Endogenous HDAC2 activity assay (luminescence) in SHSY5Y cells. The format is cell-based. Also on record: endogenous in cells; host or cells: SHSY5Y. The settings on record: not reduced by DTT; 30 min of treatment. On the procedure: Next, JRM-28 in the presence of DTT was evaluated by cytotoxicity assays. A TUNEL assay was performed with SHSY5Y neuronal cells using increasing concentrations of JRM-28 in the presence of DTT. […] The results were further confirmed by quantitative analysis (Figure 4B). […] Next, we wanted to study the effect of lower concentrations of […] on the regulation of HDAC2 activity. […] To further confirm this finding, we performed a luminescence-based HDAC2 activity assay in SHSY5Y cells with increasing doses of JRM-28. JRM-28 was not reduced by DTT during the treatment, as the cellular reductase and oxidoreductase enzymes are expected to reduce JRM-28 in its “active 28a/b” components. […]
Figure 4 Exploring the cytotoxicity of JRM-28. SHSY5Y neurons were treated with different doses of JRM-28 for 24 h and then analyzed for different cytotoxicity assays. […] TUNEL^+ve cells were detected as condensed brown bodies, whereas nuclei were stained with hematoxylin (blue). (B) TUNEL bodies were counted per 10 randomly selected cells in 20 different images. Results were plotted as a dotted boxplot, and the significance of the mean was analyzed by one-way ANOVA (single effector = treatment). **** p < 0.00001 versus DMSO control. […] (E) The band density of individual HDAC2 bands was assessed in ImageJ software (version 1.45) followed by normalization with respective β-actin band density. […]

Series [3] has as its system CREB. As to the kind of experiment: CRE dual luciferase reporter assay. The series is classed as cell-based, human. The following applies: increasing doses (2, 5, and 10 µM). On the procedure:
CRE luciferase assay was performed using a dual luciferase kit (Cat# 60611; BPS Bioscience). The CRE reporter is premixed with a constitutively expressing Renilla (sea pansy) luciferase vector that serves as an internal control for transfection efficiency. The reporter construct is transfected in SHSY5Y cells with Lipofectamine3000^TM transfection reagent mixed with serum-free Opti-MEM^TM Transfection media followed by supplementation with 20% FBS-containing media. After 24 h, cells were treated with JRM-28 for 5 h, and then dual luciferase activity was measured by cell lysis. The reaction was set in a 96-well plate, and the assay endpoint was recorded in a PerkinElmer Enspire multimodal plate reader.

Series [4] concerns SHSY5Y cells. The series is described as follows: Lactate dehydrogenase (LDH) release cytotoxicity assay. The format is cell-based, human. The settings on record: 24 h. As for the experimental part: Lactate dehydrogenase (LDH) cell cytotoxicity assay was performed per the manufacturer’s protocol. Briefly, SHSY5Y cells were grown in a 96-well plate with up to 70% confluency followed by treatment with increasing doses of JRM-28 under serum-free conditions. Serially diluted JRM-28 was used in a concentration range from 75 nM to 50 μM. As a control, serially diluted DMSO controls were added. After 24 h, supernatants were harvested by a multi-channel pipette and then assessed for LDH release with CyQUANT™ LDH Cytotoxicity Assay Kit. Briefly, 50 μL of supernatant was incubated with an equal volume of the working reaction mixture (generated after combining the 600 µL of assay buffer Stock Solution with the 11.4 mL of Substrate Stock substrate mix), incubated at room temperature for 30 min protected from light, terminated by 50 μL of stop solution, and then measured at 490 nm using a microplate absorbance spectrophotometer (Perkin Elmer Enspire 2300 Multilabel Multimode Microplate Reader). The percentage of cytotoxicity was determined following the formula provided with the LDH assay kit and then converted to relative cell cytotoxicity.

In series [5] the test system is mouse primary hippocampal neurons. As to the kind of experiment: NMDA/AMPA-sensitive calcium influx assay in mouse primary hippocampal neurons. The series is classed as cell-based. As for the experimental part: Mouse primary hippocampal neurons and AD neurons were loaded with Fluo4-fluorescence conjugated calcium dye (Invitrogen Molecular Probes, Cat #F10471) and incubated at 37 °C for 60 min, as described before. Briefly, fluorescence excitation and emission spectra were recorded in a Perkin–Elmer Victor X2 Fluorimetric Spectrometer (Versiti Blood Center, Wauwatosa, WI, USA) in the presence of 50 μM NMDA and AMPA solutions. The recording was performed with 100 repeats at 0.1 ms intervals. The oscillogram was generated with the help of Parkin Elmer 2030 software that was connected to the Victor X2 calcium recorder unit. The real-time calcium noise graph was generated as a kinetic chart plotted on a linear scale.

Chain of HDAC2 (Q92769 whole entry): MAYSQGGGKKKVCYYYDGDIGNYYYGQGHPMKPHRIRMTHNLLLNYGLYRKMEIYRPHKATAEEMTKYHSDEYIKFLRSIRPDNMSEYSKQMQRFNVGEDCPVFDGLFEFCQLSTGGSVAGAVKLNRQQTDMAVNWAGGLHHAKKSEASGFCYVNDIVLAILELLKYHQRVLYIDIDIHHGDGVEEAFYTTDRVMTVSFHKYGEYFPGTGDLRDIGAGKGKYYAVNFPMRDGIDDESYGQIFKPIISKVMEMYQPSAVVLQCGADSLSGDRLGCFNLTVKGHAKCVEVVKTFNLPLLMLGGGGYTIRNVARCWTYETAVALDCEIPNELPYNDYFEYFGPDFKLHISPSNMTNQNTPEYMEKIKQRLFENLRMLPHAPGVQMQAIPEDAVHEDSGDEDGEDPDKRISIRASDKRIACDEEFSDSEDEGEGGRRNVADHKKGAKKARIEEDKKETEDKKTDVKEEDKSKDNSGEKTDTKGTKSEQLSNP

One may read the IC50 as the concentration at which inhibition is half-maximal. Higher therefore signals a need for much substance. As to `CN(C(=O)CC(O)/C=C/CCSS(=O)(=O)CC/C=C/C(O)CC(=O)N(C)c1ccccc1)c1ccccc1` (stereo not drawn) [JRM-28, S-((E)-5-hydroxy-7-(methyl(phenyl)amino)-7-oxohept-3-en-1-yl) (E)-5-hydroxy-7-(methyl(phenyl)amino)-7-oxohept-3-ene-1-sulfonothioate], the “expressions of NR2A and GluR1 (IF, MFI)” value in series [1] was “upregulated”. The half-inhibitory concentration (IC50) in series [2] was 5.44 µM. For the same compound, the CREB-driven reporter activity entry in series [3] was “upregulated the CREB-driven reporter activity”. In addition, in series [4] (30 µM and 50 µM), the LDH release entry is “significantly induced LDH release”. Besides, the LDH release result in series [4] (concentrations lower than 30 µM) is “but not lower concentrations of JRM-28, significantly induced LDH release”. Besides, in series [5] (5 µM, 24 h), the AMPA-sensitive calcium influx entry was “strongly upregulated” and the NMDA-sensitive calcium influx entry is on record as “strongly upregulated”. Moreover, the “optimum dose for the calcium influx” value in series [5] (2, 5, and 10 µM tested) is on record as 5 µM. The “NMDA- and AMPA-driven calcium influx after creb siRNA” value in series [5] (creb knocked down by creb siRNA) is on record as “significantly abrogate”.
